As usually defined, the pIC50 is −log10 of the IC50, conventionally taken in molar units. A high value points to a small IC50. The term pKi denotes the negative decadic logarithm of the Ki, by convention in mol/L.

We go through 20 compounds from ChEMBL document CHEMBL3745716, “Synthesis, pharmacological assessment, molecular modeling and in silico studies of fused tricyclic coumarin derivatives as a new family of multifunctional anti-Alzheimer agents” (Eur J Med Chem, 2016).

Data set [1] deals with T1, Acetylcholinesterase (Electrophorus electricus, UniProt O42275).
Description: Inhibition of electric eel AChE using acetylthiocholine iodide as substrate preincubated for 5 mins followed by substrate addition measured after 5 mins by Ellman's method
Data set [2] has as its target Acetylcholinesterase (Electrophorus electricus) (UniProt O42275). Briefly: Potency index, ratio of galantamine IC50 to compound IC50 for electric eel AChE.
A short description of data set [3]: Potency index, ratio of trolox IC50 to compound IC50 for ABTS radical scavenging activity.
Data set [4] relates to SK-N-SH. The data set can be described thus: Neurotoxicity against human SK-N-SH cells assessed as cell viability at 80 uM after 24 hrs by MTT assay. Type of data set: toxicity, cell-based.
The target of another data set is Cholinesterase (Equus caballus, UniProt P81908).
Data set [5] relates to SK-N-SH. The data set can be described thus: Neurotoxicity against human SK-N-SH cells assessed as cell viability at 160 uM after 24 hrs by MTT assay. The class given is toxicity, cell-based.
The subject of data set [6] is SK-N-SH. The data set can be described thus: Neuroprotective activity against H2O2-induced cell death in human SK-N-SH cells assessed as cell viability preincubated for 3 hrs followed by H202 challenge after 24 hrs by MTT assay. Type of data set: functional, cell-based. (Formazan colour is commonly taken as a measure of viable cells.)
In data set [7] the test system is SK-N-SH. The data set can be described thus: Neurotoxicity against human SK-N-SH cells assessed as cell viability at 120 uM after 24 hrs by MTT assay. The class given is toxicity, cell-based.
In data set [8] the test system is SK-N-SH. The data set can be described thus: Neurotoxicity against human SK-N-SH cells assessed as cell viability at 200 uM after 24 hrs by MTT assay. The class given is toxicity, cell-based.
In data set [9] the test system is SK-N-SH. Briefly: Neurotoxicity against human SK-N-SH cells assessed as cell viability at 40 uM after 24 hrs by MTT assay. Type of data set: toxicity, cell-based.
A further data set concerns Mus musculus. The data set can be described thus: In vivo inhibition of AChE in ip dosed BALB/c ByJ mouse brain assessed as hydrolysis of acetylthiocholine iodide after 48 hrs by Ellman's method. The class given is functional, organism-based. For orientation: DTNB colorimetry detects thiols as they appear.
In data set [10] the target is T1, Acetylcholinesterase. Briefly: Mixed-type inhibition of electric eel AChE using acetylthiocholine iodide as substrate assessed as free enzyme preincubated for 5 mins followed by substrate addition measured over 6 mins by Lineweaver Burk plot analysis.
Data set [11] concerns the target T1, Acetylcholinesterase. Briefly: Mixed-type inhibition of electric eel AChE using acetylthiocholine iodide as substrate assessed as enzyme-substrate complex preincubated for 5 mins followed by substrate addition measured over 6 mins by Lineweaver Burk plot analysis.

Molecules are shown by their SMILES. pIC50, pKi: −log10 of the molar value. Activity calls are given as the source filed them. The calls are words filed in the database; no cut-off is given here.

Chain of Cholinesterase (P81908 whole entry): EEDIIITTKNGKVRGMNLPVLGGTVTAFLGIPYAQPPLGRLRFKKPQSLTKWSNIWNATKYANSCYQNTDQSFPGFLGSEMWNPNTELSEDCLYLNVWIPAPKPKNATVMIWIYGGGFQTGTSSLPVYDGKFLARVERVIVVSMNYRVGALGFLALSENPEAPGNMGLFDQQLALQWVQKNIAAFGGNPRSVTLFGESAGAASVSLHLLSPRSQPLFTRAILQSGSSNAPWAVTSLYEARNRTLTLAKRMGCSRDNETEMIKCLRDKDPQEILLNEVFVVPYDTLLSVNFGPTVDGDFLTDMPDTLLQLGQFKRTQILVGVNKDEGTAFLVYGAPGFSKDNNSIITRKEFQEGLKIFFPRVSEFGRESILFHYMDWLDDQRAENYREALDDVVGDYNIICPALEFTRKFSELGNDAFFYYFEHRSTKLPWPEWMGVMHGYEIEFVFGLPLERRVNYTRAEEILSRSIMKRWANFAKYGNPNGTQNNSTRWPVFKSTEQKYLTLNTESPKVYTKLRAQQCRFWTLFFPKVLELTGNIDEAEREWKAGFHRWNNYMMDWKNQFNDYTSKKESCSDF
Chain of Acetylcholinesterase (Electrophorus electricus) (O42275 24-633 limits assumed): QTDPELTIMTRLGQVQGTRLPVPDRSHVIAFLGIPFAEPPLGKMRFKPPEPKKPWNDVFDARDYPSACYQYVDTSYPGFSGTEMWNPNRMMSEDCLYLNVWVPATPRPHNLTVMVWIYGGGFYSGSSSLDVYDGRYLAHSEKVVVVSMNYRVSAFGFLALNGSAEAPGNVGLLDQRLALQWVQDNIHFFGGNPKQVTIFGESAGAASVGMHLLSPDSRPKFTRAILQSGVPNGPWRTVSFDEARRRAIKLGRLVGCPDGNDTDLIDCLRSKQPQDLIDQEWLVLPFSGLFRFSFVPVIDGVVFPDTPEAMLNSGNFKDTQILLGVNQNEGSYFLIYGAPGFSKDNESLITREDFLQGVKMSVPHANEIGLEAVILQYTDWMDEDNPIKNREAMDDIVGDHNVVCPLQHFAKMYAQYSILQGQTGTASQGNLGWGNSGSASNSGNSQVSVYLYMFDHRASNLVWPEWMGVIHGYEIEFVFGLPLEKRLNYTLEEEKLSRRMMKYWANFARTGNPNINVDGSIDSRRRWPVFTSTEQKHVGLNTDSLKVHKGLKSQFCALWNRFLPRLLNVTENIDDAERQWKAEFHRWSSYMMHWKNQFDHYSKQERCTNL
T1 sequence (O42275 whole entry): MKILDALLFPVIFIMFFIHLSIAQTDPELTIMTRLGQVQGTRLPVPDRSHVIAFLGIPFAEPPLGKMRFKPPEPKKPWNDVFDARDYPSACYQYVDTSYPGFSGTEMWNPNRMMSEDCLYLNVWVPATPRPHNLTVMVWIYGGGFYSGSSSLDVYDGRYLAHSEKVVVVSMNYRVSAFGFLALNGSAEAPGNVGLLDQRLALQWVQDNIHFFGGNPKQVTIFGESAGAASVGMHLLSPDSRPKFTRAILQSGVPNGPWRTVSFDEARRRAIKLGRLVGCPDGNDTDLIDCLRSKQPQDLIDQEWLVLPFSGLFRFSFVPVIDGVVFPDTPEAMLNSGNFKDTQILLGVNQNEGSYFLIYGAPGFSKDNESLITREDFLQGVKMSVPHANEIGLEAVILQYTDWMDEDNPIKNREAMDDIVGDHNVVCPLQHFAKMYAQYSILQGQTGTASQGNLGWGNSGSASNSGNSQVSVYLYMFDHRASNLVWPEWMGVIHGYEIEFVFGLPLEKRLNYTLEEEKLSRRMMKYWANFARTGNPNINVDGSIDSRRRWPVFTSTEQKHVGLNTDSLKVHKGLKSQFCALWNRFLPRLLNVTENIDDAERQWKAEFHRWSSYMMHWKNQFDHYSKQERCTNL

As to `Cc1cc(=O)oc2c1ccc1oc(=N)c(C(=O)N3CCOCC3)cc12`, the pIC50 was 4.95. At Acetylcholinesterase [1], this compound had a negative-log IC50 (pIC50) of 6.94. Moreover, the Ratio IC50 in [2] amounted to 2. Besides, in [3], the Ratio IC50 came to 1.7.

As for `Cc1cc(=O)oc2c1ccc1oc(=N)c(C(=O)NCc3cccc(Cl)c3)cc12`, the pIC50 is 4.99. The Activity entry with SK-N-SH [4] is on record as “Non-toxic”. Besides, the negative logarithm of the IC50 (pIC50) against Cholinesterase is less than 4.00. At Acetylcholinesterase [1], this compound showed a pIC50 of 7.72. Moreover, the Activity entry in the data set with SK-N-SH [5] was “Non-toxic”. Further, the Activity result in the data set on SK-N-SH [6] was “Dose-dependent effect”. In addition, the Activity result in the data set on SK-N-SH [7] is “Non-toxic”. Moreover, the Activity entry with SK-N-SH [8] is recorded as “Non-toxic”. Further, the Ratio IC50 in data set [2] amounted to 2. Besides, the Activity result with SK-N-SH [9] is listed as “Non-toxic”. For the same compound, in data set [3], the Ratio IC50 stood at 1.7.

The compound `Cc1cc(=O)oc2c1ccc1oc(=N)c(C(=O)NCc3ccccc3Cl)cc12` showed a pIC50 of 4.80. In addition, in the data set with SK-N-SH [4], the Activity result is recorded as “Non-toxic”. The compound further showed a pIC50 at Cholinesterase of less than 4.00. For the same compound, the pIC50 at Acetylcholinesterase [1] is 7.92. Besides, the Activity result with SK-N-SH [5] was “Non-toxic”. The Activity entry in the data set with SK-N-SH [6] is “Dose-dependent effect”. Besides, the Activity result with SK-N-SH [7] was “Non-toxic”. For the same compound, the Activity entry in the data set with SK-N-SH [8] is recorded as “Non-toxic”. In addition, in data set [2], the Ratio IC50 was found to be 2. The Activity entry with SK-N-SH [9] is listed as “Non-toxic”. In data set [3], the Ratio IC50 stood at 1.7.

As to `CCNC(=O)c1cc2c(ccc3c(C)cc(=O)oc32)oc1=N`, the pIC50 is less than 4.30. At Cholinesterase, this compound had a pIC50 of 4.95. The compound further gave a pIC50 against Acetylcholinesterase [1] of 6.53. In addition, the Ratio IC50 in data set [2] was 2.

Compound `CNC(=O)c1cc2c(ccc3c(C)cc(=O)oc32)oc1=N` gave a pIC50 of 4.47. Further, the negative logarithm of the IC50 (pIC50) on Cholinesterase was less than 4.00. In addition, the pIC50 against Acetylcholinesterase [1] is 5.85.

Regarding `Cc1cc(=O)oc2c1ccc1oc(=N)c(C(=O)NCc3cccc(Br)c3)cc12`, the negative-log IC50 (pIC50) was 5.10. For the same compound, the Activity entry in the data set on SK-N-SH [4] was “Toxic”. For the same compound, the negative logarithm of the IC50 (pIC50) against Cholinesterase is less than 4.00. Further, at Acetylcholinesterase [1], the negative logarithm of the IC50 (pIC50) was 8.52. Moreover, the Activity entry with SK-N-SH [5] was “Toxic”. Besides, in the data set with SK-N-SH [6], the Activity entry is “Dose-dependent effect”. Also, in the data set with SK-N-SH [7], the Activity entry was “Toxic”. The inhibition entry in the data set with Mus musculus was “Active”. Besides, in the data set with SK-N-SH [8], the Activity result was “Toxic”. On Acetylcholinesterase [10], the negative logarithm of the Ki (pKi) is 7.99. Further, the pKi on Acetylcholinesterase [11] was 7.71. The Ratio IC50 in data set [2] came to 2. For the same compound, the Activity entry with SK-N-SH [9] is recorded as “Toxic”. Further, the Ratio IC50 in [3] was determined as 1.7.

Consider `Cc1cc(=O)oc2c1ccc1oc(=N)c(C(=O)NCc3ccccc3Br)cc12`, for which the negative-log IC50 (pIC50) was 4.92. Also, the Activity entry in the data set with SK-N-SH [4] is listed as “Non-toxic”. This compound also showed a pIC50 on Cholinesterase of less than 4.00. On Acetylcholinesterase [1], the negative logarithm of the IC50 (pIC50) was 7.80. The Activity entry in the data set on SK-N-SH [5] was “Non-toxic”. In addition, the Activity entry in the data set with SK-N-SH [6] is “Dose-dependent effect”. Also, the Activity result with SK-N-SH [7] was “Non-toxic”. Also, in the data set with SK-N-SH [8], the Activity entry is given as “Non-toxic”. The Ratio IC50 in data set [2] stood at 2. Besides, in the data set with SK-N-SH [9], the Activity entry was “Non-toxic”. Moreover, the Ratio IC50 in data set [3] is 1.7.

Consider `Cc1cc(=O)oc2c1ccc1oc(=N)c(C(=O)NC(C)c3ccccc3)cc12` (stereo unspecified), for which the negative-log IC50 (pIC50) was 4.85. Also, at Cholinesterase, the negative-log IC50 (pIC50) is 4.45. The compound also showed a pIC50 on Acetylcholinesterase [1] of 6.61. In addition, the Ratio IC50 in data set [2] worked out at 2. For the same compound, in data set [3], the Ratio IC50 amounted to 1.7.

On to `Cc1cc(=O)oc2c1ccc1oc(=N)c(C(=O)Nc3ccccc3[N+](=O)[O-])cc12`, for which the negative logarithm of the IC50 (pIC50) was less than 4.30. On Cholinesterase, this compound showed a pIC50 of less than 4.00. This compound had a negative logarithm of the IC50 (pIC50) against Acetylcholinesterase [1] of 6.65. In addition, the Ratio IC50 in data set [2] was 2.

As for `COc1ccc(CNC(=O)c2cc3c(ccc4c(C)cc(=O)oc43)oc2=N)c(OC)c1`, the pIC50 is less than 4.30. For the same compound, the pIC50 against Cholinesterase is less than 4.00. This compound also gave a pIC50 at Acetylcholinesterase [1] of 6.45. Moreover, the Ratio IC50 in [2] is 2.

Take `Cc1cc(=O)oc2c1ccc1oc(=N)c(C(=O)N3CCCC3)cc12`: the pIC50 was less than 4.30. Also, the pIC50 against Cholinesterase was 4.14. Also, at Acetylcholinesterase [1], the negative-log IC50 (pIC50) is 6.01. The Ratio IC50 in [2] worked out at 2.

`COc1ccc(C(C)NC(=O)c2cc3c(ccc4c(C)cc(=O)oc43)oc2=N)cc1` (stereo unspecified) had a negative logarithm of the IC50 (pIC50) of 5.04. The pIC50 on Acetylcholinesterase [1] is 5.72. For the same compound, the Ratio IC50 in data set [3] amounted to 1.7.

Take `Cc1cc(=O)oc2c1ccc1oc(=N)c(C(=O)NCc3ccccc3)cc12`: the negative logarithm of the IC50 (pIC50) is less than 4.30. The pIC50 against Cholinesterase was less than 4.00. This compound also gave a negative-log IC50 (pIC50) against Acetylcholinesterase [1] of 5.67. Besides, the Ratio IC50 in data set [2] turned out to be 2.

Compound `Cc1cc(=O)oc2c1ccc1oc(=N)c(C(=O)NC3CC3)cc12` had a pIC50 of less than 4.30. The compound further gave a pIC50 against Cholinesterase of 4.41. Further, the pIC50 at Acetylcholinesterase [1] is 6.04.

`Cc1cc(=O)oc2c1ccc1oc(=N)c(C(=O)NC(c3ccccc3)c3ccccc3)cc12` had a negative logarithm of the IC50 (pIC50) of less than 4.30. This compound also had a pIC50 against Acetylcholinesterase [1] of 7.05. For the same compound, the Ratio IC50 in data set [2] was 2.

Compound `Cc1c(C)c2c(c(C)c1O)CCC(C)(C(=O)O)O2` (stereo unspecified) [TROLOX] showed a pIC50 of 4.56.

`Cc1cc(=O)oc2c1ccc1oc(=N)c(C(=O)NCc3ccc(C(C)(C)C)cc3)cc12` had a negative logarithm of the IC50 (pIC50) of 4.87. Further, the Activity result in the data set on SK-N-SH [4] is reported as “Toxic”. At Cholinesterase, this compound gave a pIC50 of 4.24. The same compound showed a negative-log IC50 (pIC50) against Acetylcholinesterase [1] of 8.00. Further, the Activity entry with SK-N-SH [5] was “Toxic”. Also, in the data set on SK-N-SH [6], the Activity result is “Dose-dependent effect”. Moreover, the Activity entry in the data set on SK-N-SH [7] is on record as “Toxic”. In addition, the Activity entry with SK-N-SH [8] was “Toxic”. In [2], the Ratio IC50 worked out at 2. The Activity result in the data set with SK-N-SH [9] is “Toxic”. Further, the Ratio IC50 in data set [3] was determined as 1.7.

On to `Cc1cc(=O)oc2c1ccc1oc(=N)c(C(=O)NC3CCCCC3)cc12`, for which the pIC50 is less than 4.30. Also, the negative-log IC50 (pIC50) against Cholinesterase was 4.38. The compound also showed a negative-log IC50 (pIC50) against Acetylcholinesterase [1] of 7.57. Besides, in data set [2], the Ratio IC50 was 2.

Compound `COc1ccccc1OCCNC(=O)c1cc2c(ccc3c(C)cc(=O)oc32)oc1=N` gave a pIC50 of 4.89. On Cholinesterase, the pIC50 was 4.61. The same compound showed a negative logarithm of the IC50 (pIC50) against Acetylcholinesterase [1] of 5.59.

With `CCCCCCCCCCCCNC(=O)c1cc2c(ccc3c(C)cc(=O)oc32)oc1=N`, the pIC50 is less than 4.30. Moreover, the negative logarithm of the IC50 (pIC50) against Cholinesterase is less than 4.00. Besides, at Acetylcholinesterase [1], the negative logarithm of the IC50 (pIC50) is 7.66. The Ratio IC50 in data set [2] was determined as 2.
